Measurements published in patent US5919635A (ZymoGenetics, Inc., priority 1995, dated 1999).
Blank lines part the entries; values can stand above or below the molecule they belong to. No end group written: not given here.

Key:
[1] = target: Human Glucagon Receptor (pLJ6') (Homo sapiens, UniProt P47871); test: cAMP accumulation in pLJ6'-transfected cells; format: cell-based
Protocol: The related peptides secretin, VIP, PTH, GLP and calcitonin were each added to transfectants at concentrations of 100 nM to 1000 nM and assayed for their ability to induce cAMP levels.
Transfected cells were selected in the presence of G418 until single colonies were visible. Single colonies were cloned using cloning cylinders.
The PLJ6'-transfected cells were assayed for cAMP accumulation essentially as described in Example 8.C.

[2] = target: Rat Glucagon Receptor (pLJ4) in COS-7 cells (Rattus norvegicus, UniProt P30082); test: cAMP accumulation (Amersham SPA kit) in COS-7 cells transfected with pLJ4; format: cell-based; settings: 100 nM to 1000 nM; pLJ4 transfectants
Rat Glucagon Receptor (pLJ4) in COS-7 cells, sequence (P30082 27-485): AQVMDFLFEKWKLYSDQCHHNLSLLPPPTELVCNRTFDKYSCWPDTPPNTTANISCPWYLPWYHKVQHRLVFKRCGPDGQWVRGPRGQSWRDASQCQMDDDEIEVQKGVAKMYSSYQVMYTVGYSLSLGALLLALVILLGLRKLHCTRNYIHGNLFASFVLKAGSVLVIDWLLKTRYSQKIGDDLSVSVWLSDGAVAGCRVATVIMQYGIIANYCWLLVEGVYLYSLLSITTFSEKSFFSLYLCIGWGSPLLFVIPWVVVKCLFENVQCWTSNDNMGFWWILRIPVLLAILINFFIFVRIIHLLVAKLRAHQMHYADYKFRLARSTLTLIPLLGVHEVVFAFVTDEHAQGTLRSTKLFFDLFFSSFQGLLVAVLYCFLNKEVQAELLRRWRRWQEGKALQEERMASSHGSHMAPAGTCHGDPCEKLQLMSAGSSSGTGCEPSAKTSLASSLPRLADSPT

[3] = target: T1, cloned receptor (rat glucagon receptor, pLJ4) (Rattus norvegicus, UniProt P30082); test: Competition binding / Scatchard analysis with ^125 I-glucagon on membranes of pLJ4 BHK transfectants; settings: micromolar amounts (Table 7: 1 μM glucagon and des-His^1 [Glu^9]glucagon amide)
T1 construct: pLJ4 contained an approximately 2 kb insert encoding a 485 amino acid protein; expressed in transfected cells; host or cells: BHK570
T1 sequence (P30082 27-485): as above
Protocol: Membranes from the pLJ4 BHK transfectants were compared with rat liver membrane preparations for the ability to bind ^125 I-glucagon. Membranes were prepared essentially described by Rodbell et al. (J. Biol Chem. 246:1861-1871, 1971, which is incorporated by reference herein in its entirety). Two batches of liver membranes were each prepared from approximately 80 gm of liver from 12 to 16 decapitated young female rats. The livers were removed quickly and placed into an iced beaker. The livers were separated into ten-gram portions. The portions were minced with scissors, and connective tissue was removed during the mincing procedure. The portions were separately homogenized in a Dounce homogenizer. To each portion, 25 ml of Medium (Table 2) was added to the minced tissue in the homogenizer, and the tissue was homogenized in an ice bucket with eight vigorous strokes of the loose pestle. After homogenization, the homogenates were pooled into 450 ml of cold Medium (Table 2). The pooled homogenates were stirred for 3 minutes and filtered through two layers of cheesecloth followed by filtering through four layers of cheesecloth. The homogenates were then centrifuged for 30 minutes at 1500×g at 4° C. The supernatants were discarded, and the pellets were pooled into a clean Dounce homogenizer. The pellets were resuspended with three gentle strokes of the loose pestle. The resuspended pellets were decanted into a 250 ml graduate containing 62 ml of 69% Sucrose Solution (Table 2). Distilled water was added to a final volume of 110 ml, and the mixture was thoroughly mixed and kept cold. The concentration of the solution was adjusted to 44.0%+/-0.1% using 69% sucrose or water as measured by a refractometer (Bausch & Lomb, Rochester, N.Y.). […]
To each tube 100 μl of 2× binding buffer; 20 μl of ^125 I-glucagon (Amersham); 20 μl of 1 mM NaHCO3; 20 μl 10 mM HOAc, 0.5% BSA (Novo Nordisk N/A, Bagsvaerd, Denmark); and 40 μl of distilled water were added. […] The supernatants from each sample were aspirated, and the pellets were counted. […]

[4] = test system: isolated human islets; test: Insulin secretory function of isolated human pancreatic islets after perfusion; format: cell-based
Protocol: Islet cells were isolated from human pancreata obtained from organ transplant donors for whom a matched recipient was not available. After in situ perfusion with cold UW solution (Du Pont, Boston, Mass.), each pancreas was carefully excised, the pancreatic duct cannulated, and 4 mg/ml collagenase solution (Type V, Sigma, St. Louis, Mo.) infused at a constant rate, first at 4° C. and then 39° C. The gland was teased apart, and liberated fragments were washed by centrifugation, triturated through needles of decreasing caliber, and purified by discontinuous Ficoll density centrifugation (Warnock, Diabetes 35(Suppl. 1):136-139, 1989). Material harvested from the upper interfaces was pooled and counted after a determination of islet purity by dithiazone staining. Islets used in library construction were greater than 65% pure, while islets used in Northern blots were greater than 40% pure. The average islet diameter was 175 μm.

[5] = test system: CRE-luciferase (KZ6) in BHK570 cells; test: Luciferase assay response to forskolin of KZ6-transfected BHK570 clone BHK/KZ6-19-46; format: cell-based
Protocol: Plasmid KZ6 was transfected into BHK570 cells (deposited with the American Type Culture Collection under Accession No. 10314) using the calcium phosphate precipitation method essentially as described by Graham and Van der Eb (Virology 52:456, 1973, which is incorporated by reference herein in its entirety). The transfected cells were grown in growth medium (Dulbecco's modified Eagle's medium (DMEM) containing 10% fetal calf serum, 1× PSN antibiotic mix (GIBCO-BRL), and 2.0 mM L-glutamine). After a few days in non-selective growth medium, the growth medium was replaced with G418 selection medium (growth medium containing 500 μg/ml of G418). The cells were then allowed to grow to confluency after which they are trypsinized and plated at limiting dilution into the wells of 96-well plates. The cells were grown for one to two weeks in G418 selection media. Clones from wells containing single colonies were assayed for the ability to respond to forskolin in the luciferase assay described below. Forskolin elevates the cellular cAMP level and thus the associated cAMP-dependent biological response pathways in a receptor-independent manner.
(§1) Following induction, the medium was removed, and the wells were washed once with 200 μl/well PBS. […] The fold induction of luciferase for each agonist was calculated as follows: [formula]

[6] = target: T2, rat glucagon receptor (Rattus norvegicus, UniProt P30082); test: CRE-luciferase induction in pLJ4 transfectant clone KZ6/rGR-DHFR-2; format: cell-based; settings: listed 200 nM GLP, 20 nM VIP, 100 nM CT, 4 hours at 37° C.
T2 construct: pLJ4 contained an approximately 2 kb insert encoding a 485 amino acid protein; expressed in transfected cells; host or cells: BHK/KZ6-19-46 (BHK570 with CRE-luciferase plasmid KZ6), clone KZ6/rGR-DHFR-2
T2 sequence (P30082 27-485): as above
Protocol: D. Luciferase and Adenylate Cyclase Activity Assays on Whole Cells
BHK/KZ6-19-46 cells were co-transfected with pLJ4 and pLJ1 or with pZCEP and pLJ1 (pZCEP transfectants were used as negative controls) as described above using calcium phosphate-mediated transfection. Transfectants were selected in 250 nM methotrexate as described previously.
Transfectants were assayed in triplicate for the induction of the CRE-luciferase response by selected agonists. Six random pLJ4 transfectants were assayed, and random pZCEP transfectants were assayed (negative controls). Microtiter assay plates were set up such that each well contained 2×10^4 cells in 100 μl of selection medium, and the cells were grown overnight. The agonists were prepared in selection medium, at the 2× final assay concentration listed:
Induction was initiated by the addition of 100 μl for each 2× solution in triplicate sample wells. Uninduced levels were determined in triplicate wells to which 100 μl of DMEM containing 10% fetal calf serum was added. The plates were incubated for four hours at 37° C., 5% CO2 to allow induction of luciferase production.
as §1

Human Glucagon Receptor (pLJ6'), sequence (P47871 26-477): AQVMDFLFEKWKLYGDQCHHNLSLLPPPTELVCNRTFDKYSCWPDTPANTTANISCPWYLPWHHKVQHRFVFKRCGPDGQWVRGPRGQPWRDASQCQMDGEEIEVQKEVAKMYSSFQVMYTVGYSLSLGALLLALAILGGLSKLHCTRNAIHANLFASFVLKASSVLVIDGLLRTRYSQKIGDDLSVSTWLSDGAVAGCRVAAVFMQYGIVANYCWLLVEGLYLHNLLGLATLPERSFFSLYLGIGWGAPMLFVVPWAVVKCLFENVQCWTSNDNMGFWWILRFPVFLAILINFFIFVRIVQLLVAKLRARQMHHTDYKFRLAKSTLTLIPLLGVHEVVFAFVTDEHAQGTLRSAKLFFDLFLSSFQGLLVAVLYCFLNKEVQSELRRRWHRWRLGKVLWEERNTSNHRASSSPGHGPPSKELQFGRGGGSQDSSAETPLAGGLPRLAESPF

- cAMP accumulation (in words) [1]: no increased cAMP accumulation
Molecule: secretin: porcine secretin (Sigma) (HSDGTFTSELSRLRDSARLQRLLQGLV; ends and bridges not checked; UniProt P63298 33-59, looked up)
- ability to induce cAMP levels [2]: none of the related peptides were capable of inducing significant increases in cAMP levels

Molecule: des-His^1 [Glu^9 ]glucagon amide
- ability to compete for ^125 I-glucagon binding [3]: able to compete

Molecule: O=C[C@H](O)[C@@H](O)[C@H](O)[C@H](O)CO [glucose]
- insulin secretory function (in words) [4]: both first and second phase insulin secretory function

Molecule: CC(C)Cn1c(=O)n(C)c(=O)c2[nH]cnc21 [isobutylmethylxanthine (IBMX), isobutylmethylxanthine]
- insulin secretory function (in words) [4]: both first and second phase insulin secretory function

Molecule: C=C[C@@]1(C)CC(=O)[C@]2(O)[C@@]3(C)[C@@H](O)CCC(C)(C)[C@@H]3[C@H](O)[C@H](OC(C)=O)[C@@]2(C)O1 [forskolin]
- ability to respond to forskolin in the luciferase assay [5]: capable of responding to forskolin

- induction of luciferase (in words) [6]: not induced
Molecule: calcitonin
- ability to induce cAMP levels [2]: none of the related peptides were capable of inducing significant increases in cAMP levels

B1: PTH: bovine parathyroid hormone (PTH) (Sigma) (peptide, UniProt P01268 32-115, looked up)
Parathyroid hormone: AVSEIQFMHNLGKHLSSMERVEWLRKKLQDVHNFVALGASIAYRDGSSQRPRKKEDNVLVESHQKSLGEADKADVDVLIKAKPQ
modifications: Parathyroid hormone
- ability to induce cAMP levels [2]: none of the related peptides were capable of inducing significant increases in cAMP levels
